Experimental data taken from publication PMC8910560, “Screening of Novel Bioactive Peptides from Goat Casein: In Silico to In Vitro Validation” (International Journal of Molecular Sciences, 2022).
Ends that are not written are not given here.

system: not given; assay: not given; parameters: method as in Contreras et al. (2013) [21]; settings: after the digestion process; ref Contreras et al. (2013) [21]; cited from earlier work

Row | Substance | change of antioxidant activity | antioxidant capacity [µmol TE µmol^−1 peptide]
1 | YQKFPQY [casein-derived peptide studied by Contreras et al. (2013)] | reduced | –
2 | RYLGY | reduced | –
3 | AYFYPEL [casein-derived peptide studied by Contreras et al. (2013)] | – | 4.160 ± 0.623

same assay, conditions: before digestion; ref Contreras et al. (2013) [21]; cited from earlier work

Row | Substance | antioxidant capacity [µmol TE µmol^−1 peptide]
4 | AYFYPEL [casein-derived peptide studied by Contreras et al. (2013)] | 3.216 ± 0.114

target: T1, angiotensin-I converting enzyme (ACE) (Oryctolagus cuniculus, UniProt P12822); assay: ACE inhibitory activity (iACE), fluorometric assay; format: biochemical; settings: Digested (simulated gastrointestinal digestion, 50 µg mL^−1 in intestinal compartment)
T1 construct: purchased Sigma-Aldrich
T1 sequence (P12822 34-1310): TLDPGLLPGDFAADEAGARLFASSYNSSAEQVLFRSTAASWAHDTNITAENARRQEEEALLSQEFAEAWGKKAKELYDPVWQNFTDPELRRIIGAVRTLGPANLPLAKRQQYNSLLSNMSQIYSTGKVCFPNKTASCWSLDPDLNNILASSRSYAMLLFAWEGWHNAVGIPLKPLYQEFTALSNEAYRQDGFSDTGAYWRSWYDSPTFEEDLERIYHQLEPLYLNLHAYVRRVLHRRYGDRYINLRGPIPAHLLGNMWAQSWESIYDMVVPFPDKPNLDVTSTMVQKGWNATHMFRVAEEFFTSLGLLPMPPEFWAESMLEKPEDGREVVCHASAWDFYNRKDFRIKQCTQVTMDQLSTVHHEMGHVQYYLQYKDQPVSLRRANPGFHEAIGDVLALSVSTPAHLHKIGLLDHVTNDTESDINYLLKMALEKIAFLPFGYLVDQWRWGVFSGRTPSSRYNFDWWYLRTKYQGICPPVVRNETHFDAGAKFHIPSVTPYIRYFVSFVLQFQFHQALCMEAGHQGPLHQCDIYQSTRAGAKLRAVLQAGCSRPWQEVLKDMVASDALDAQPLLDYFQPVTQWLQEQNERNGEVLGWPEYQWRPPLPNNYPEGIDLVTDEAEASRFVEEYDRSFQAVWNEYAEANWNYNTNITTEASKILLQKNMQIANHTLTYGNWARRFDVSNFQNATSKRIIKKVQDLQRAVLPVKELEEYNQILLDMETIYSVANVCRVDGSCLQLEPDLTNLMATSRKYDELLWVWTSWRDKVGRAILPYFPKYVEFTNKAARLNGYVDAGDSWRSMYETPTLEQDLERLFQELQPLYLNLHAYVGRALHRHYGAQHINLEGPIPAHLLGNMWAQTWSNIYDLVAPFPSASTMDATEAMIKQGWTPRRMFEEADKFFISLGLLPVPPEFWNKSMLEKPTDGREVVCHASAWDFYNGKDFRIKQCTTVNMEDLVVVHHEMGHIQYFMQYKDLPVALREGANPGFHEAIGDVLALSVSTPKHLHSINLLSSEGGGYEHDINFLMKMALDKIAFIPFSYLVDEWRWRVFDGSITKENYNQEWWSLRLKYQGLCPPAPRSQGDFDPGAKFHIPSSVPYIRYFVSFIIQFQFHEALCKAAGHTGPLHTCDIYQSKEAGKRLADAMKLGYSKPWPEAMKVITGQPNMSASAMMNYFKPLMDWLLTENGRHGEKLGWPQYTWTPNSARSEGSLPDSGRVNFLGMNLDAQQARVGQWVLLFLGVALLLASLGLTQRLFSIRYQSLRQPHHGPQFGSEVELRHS
Method: The ACE inhibitory activity was carried out using the fluorometric assay described by Coscueta, Brassesco, and Pintado (2021). The iACE of each sample (raw peptide and digested) was evaluated in duplicate and expressed as the concentration capable of inhibiting 50% of the enzymatic activity (IC50). To calculate the IC50 values, non-linear modeling was used, and the results were expressed as μg mL^−1 to inhibit 50% of the enzymatic activity.
Simulated gastrointestinal digestion was performed according to the method described by Madureira et al. (2011). Briefly, mouth digestion was mimicked by introducing the peptide sequence (2.5 mg/mL) into 15 mL of a 1 mM CaCl2 solution of 100 U mL^−1 α-amylase, under constant stirring (200 rpm) for 2 min at 37 °C, simulating masticatory movements. A 1 M NaHCO3 solution was used to adjust the pH of artificial saliva to 6.9. Subsequently, a pepsin solution, 25 mg/mL, was added with a ratio of 0.05 mL/mL of a sample at pH 2.0 (simulated gastric solution, stomach) following incubation for 2 h, 37 °C at 130 rpm orbital agitation for the gastric phase. Finally, intestinal digestion and absorption were simulated by adjusting pH values to […] using a 1 M NaHCO3 solution and adding a solution of bile salts and pancreatin to the digest.

Row | IC50 [µM] | Substance
5 | > 47.7 | YPYQGPIVL [YPYQGPIVL]
6 | > 30.6 | QSLVYPFTGPIPNSL [QSLVYPFTGPIPNSL]
7 | > 56.7 | SWMHQPP [SWMHQPP]

same assay, conditions: Raw peptide; mean ± SD

Row | IC50 [µM] | Substance
8 | > 3170 | MHQPPQPL [MHQPPQPL]
9 | > 3680 | HQPPQPL [HQPPQPL]
10 | 1060 | YPYQGPIVL [YPYQGPIVL]
11 | > 1840 | QSLVYPFTGPIPNSL [QSLVYPFTGPIPNSL]
12 | 253 | SWMHQPP [SWMHQPP]

system: ACE; assay: not given; settings: antihypertensive oligopeptides encoded in human β-casein; cited from earlier work

Row | Substance | IC50 (ACE) [µg/mL]
13 | VMP | 10.0
14 | TVYTKGRVMP [antihypertensive oligopeptide encoded in the human β-casein] | 43.7
15 | VLPYP | 21.1
16 | VLPIP | 16.7
17 | PAVVLP | 26.8
18 | LPQNILP [antihypertensive oligopeptide encoded in the human β-casein] | 36.5
19 | NPPHQIYP [antihypertensive oligopeptide encoded in the human β-casein] | 35.7
20 | PHQIYP | 22.6

same assay, conditions: antihypertensive oligopeptides encoded in various β-caseins; cited from earlier work

Row | Substance | IC50 (ACE) [µg/mL]
21 | HPFAQTQQSLVYP [antihypertensive oligopeptide encoded in various β-caseins] | 36.1
22 | FAQTQSLVYP [antihypertensive oligopeptide encoded in various β-caseins] | 28.8
23 | SLVYP | 23.7

same assay, conditions: whey-derived peptides; ref Tavares et al. (2011) [14]; cited from earlier work

Row | Substance | IC50 (ACE) [µg/mL]
24 | KGYGGVSLPEW | 0.7
25 | DAQSAPLRVY | 12.2
26 | DKVGINYW | 25.4
